≈ marks a conversion by molar mass, not a printed value.
Test system: influenza A/Puerto Rico/8/34 (H1N1) virus
Assay type: cell-based

| SMILES | IC50 (antiviral activity) [µg/mL] |
| --- | --- |
| CC(N)C12CC3CC(CC(C3)C1)C2 (stereo not drawn) [Rimantadine, reference compound] | 12 ± 2 (≈ 66.9 µM) |
| Nc1cc(-c2nnn(C34CC5CC(CC(C5)C3)C4)n2)ccc1O [Compound 3i, 4-[2-(Adamantan-1-yl)-2 H -tetrazol-5-yl]-2-aminophenol] | 15 ± 2 (≈ 48.2 µM) |
| Nc1c(Br)cc([N+](=O)[O-])cc1-c1nnn(C23CC4CC(CC(C4)C2)C3)n1 [Compound 3h, 2-[2-(Adamantan-1-yl)-2 H -tetrazol-5-yl]-6-bromo-4-nitroaniline] | 15 ± 3 (≈ 35.8 µM) |
